Source: publication PMC8000185 (International Journal of Molecular Sciences, 2021)
“And” between values parts separate entries of the source, which are not always exact repeats. Identical values can stand only once. Like-named read-outs stand apart in the source and are kept apart here.

Legend:
[1] = target: T1, NHE1 (Homo sapiens, UniProt P19634); assay: Plate-based NHE1 inhibition assay (BCECF pHi recovery, 96-well plate reader); assay type: cell-based
T1 construct: endogenous in cells; host or cells: MDA-MB-231
Experimental: To perform NHE1 screening with increased throughput, we adapted the conventional cuvette-based NHE1 activity assay to a simple new 96-well plate format using MDA-MB-231 cells that were compatible with common laboratory fluorescence plate readers (see Section 4 for details).
Culture media were removed and replaced with 200 µL 0.2% FBS-containing media with incubation for 3–4 h to stimulate NHE1 activity, followed by incubation for 30 min in the presence of 5 µM 2′,7′-bis(carboxyethyl)-5(6)-carboxyfluorescein-acetoxymethyl ester (BCECF-AM, cat #ab143463, Abcam, Cambridge, United Kingdom). Cells were then washed with 100 µL/well Na^+-free acid-load buffer: 10 mM NH4Cl, 1.8 mM CaCl2, 90 mM N-methyl-D-glucamine (from 1 M stock titrated to pH 7.4 with HCl), 5 mM glucose, 15 mM HEPES, 5 mM KCl, 1 mM MgCl2 (pH 7.5, adjusted with KOH), and incubated at 37 °C for a further 30 min. Acid-load buffer was removed and replaced with Na^+-containing assay buffer: 100 mM NaCl, 1.8 mM CaCl2, 5 mM glucose, 15 mM HEPES, 5 mM KCl, 1 mM MgCl2 containing serial dilution of each compound or DMSO vehicle, and changes in fluorescence were read immediately using a BMG Labtech POLARstar OMEGA (BMG Labtech GmbH, Offenburg, Germany) plate reader according to the parameters in Table S1. Compounds were tested at n = 3 technical replicates per concentration per plate. BCECF-AM-free cells were treated with matched concentrations of each compound to correct for intrinsic fluorescence. DMSO was present in all wells at a final concentration of 1% v/v. Inhibition of NHE1-mediated pHi recovery was determined by ratiometric calculation of the change in blank-corrected pH-sensitive fluorescence divided by the isobestic fluorescence for each well over time. […] (0% activity) controls present on each plate. IC50 values were determined through fitting of Log-10 transformed data using the “log(inhibitor) versus normalised response–variable slope” non-linear function in GraphPad PRISM v8.0 software package (GraphPad Software, San Diego, CA, USA).

[2] = Cell viability (cytotoxicity) assay; assay type: cell-based; conditions: human, MDA-MB-231 cells, 48 h treatment
Experimental: On the day of treatment, respective compounds were serially diluted using a semi-logarithmic dilution series from 20 mM stocks in neat DMSO into DMEM-high glucose media (10% v/v FBS) in a separate 96-well plate and under sterile conditions. Thereafter, 10 μL of the diluted compounds at their respective concentrations (n = 4) were added to the cells. […] Vehicle media blanks or drug blanks were also included to correct for inherent colour of the compounds and phenol red-containing media. Following 48 h treatment, 20 μL CellTitre 96® Aqueous One Solution Cell Proliferation Assay (Promega, Madison, USA) was added to each well, plates were incubated for 2 h, and absorbance was measured at 490 nm using a SpectraMax Plus 384-well plate reader (Molecular Devices LLC, San Jose, USA) and Softmax PRO v7.0 software. Blank-corrected data were analysed and graphed using GraphPad PRISM v8.0 software (GraphPad Software, San Diego, CA USA).

[3] = system: NHE1; conditions: read-out: NHE1 IC50 (literature); cited from earlier work
[4] = target: T2, urokinase from human kidney cells (human uPA) (Homo sapiens, UniProt P00749); assay: uPA inhibition assay (fluorescence-based, purified enzyme); assay type: biochemical; conditions: for uPA selectivity ratio: uPA over NHE1
T2 construct: low molecular weight active human uPA; purchased Sigma-Aldrich U4010; host or cells: human kidney cells

[5] = target: T1, NHE1; assay: Cuvette-based NHE1 inhibition assay; assay type: cell-based
Experimental: Performed as described in [53]. Briefly, MDA-MB-231 cells were grown to ~80–90% confluence on glass coverslips. Then, 3 µM BCECF were loaded into cells in 400 µL serum-free medium and the fluorescence was measured using a PTI Deltascan spectrofluorometer (Horiba Ltd., Kyoto, Japan). […] A calibration curve of pHi fluorescence was performed for every sample using nigericin [55]. […] IC50 values were determined through fitting of Log-10 transformed data using the “log(inhibitor) versus normalised response–variable slope” non-linear function in GraphPad PRISM v8.0 software package (GraphPad Software, San Diego, USA).

[6] = target: T3, MDA-MB-231 cell-surface uPA (HMW human active uPA bound to uPAR) (Homo sapiens, UniProt P00749); assay: Cell-surface uPA activity assay; assay type: cell-based; conditions: average ± SEM from four independent assays
T3 construct: pre-incubated with active high molecular weight (HMW) uPA; purchased Molecular Innovations HTC-UPA; host or cells: added to MDA-MB-231 cells (endogenous uPAR)
Experimental: Having identified non-cytotoxic compounds with the desired target selectivity profiles, we then sought to confirm their uPA inhibitory activities in a more physiologically relevant, whole-cell assay. To this end, the fluorogenic biochemical assay was modified to allow measurement of cell-surface uPA activity in MDA-MB-231 cells, which are known to express uPAR [38, 39]. To maximise enzymatic activity, the cells were pre-incubated with active high molecular weight (HMW) uPA to saturate unoccupied uPAR present at the cell surface.
MDA-MB-231 cells were seeded into Greiner CELLSTAR black 96-well plates (Greiner Bio-one, cat #655079) at density 10,000 cells/well in a volume of 100 µL media and cultured for 48 h. On the day of the experiment, cell culture media were removed via shakeout, followed by washing with 100 µL 1 × Dulbecco’s PBS/1 mM CaCl2/1 mM MgCl2/0.1% protease-free bovine serum albumin/pH 7.4 wash buffer. Cells were then incubated in the presence of 25 nM HMW human active uPA (Molecular Innovations, San Diego, CA, USA, SKU: HTC-UPA) in wash buffer for 30 min at RT. Unbound HMW uPA was removed via washing twice with 100 µL wash buffer. […] Plates were read immediately following the addition of substrate using a POLARstar OMEGA fluorescence plate reader (BMG Labtech GmbH, Offenburg, Germany) according to the parameters in Table S1.

[7] = system: ENaC; conditions: previously showed; cited from earlier work
[8] = previously showed; cited from earlier work
[9] = system: orthotopic xenograft model of pancreatic ductal adenocaricinoma; conditions: pancreatic ductal adenocarcinoma; cited from earlier work
[10] = 1 μM, MDA-MB-231 cells, plate reader
[11] = MDA-MB-231 cells, plate-reader assay, read-out: NHE1 Plate reader IC50
[12] = purified enzyme, Z-Gly-Gly-Arg-AMC substrate, number in parentheses after value, read-out: uPA IC50
[13] = plate-reader value as printed in nM in text, read-out: NHE1 IC50
[14] = MDA-MB-231 cells, cuvette assay, read-out: NHE1 Cuvette IC50

T1 sequence (P19634 whole entry): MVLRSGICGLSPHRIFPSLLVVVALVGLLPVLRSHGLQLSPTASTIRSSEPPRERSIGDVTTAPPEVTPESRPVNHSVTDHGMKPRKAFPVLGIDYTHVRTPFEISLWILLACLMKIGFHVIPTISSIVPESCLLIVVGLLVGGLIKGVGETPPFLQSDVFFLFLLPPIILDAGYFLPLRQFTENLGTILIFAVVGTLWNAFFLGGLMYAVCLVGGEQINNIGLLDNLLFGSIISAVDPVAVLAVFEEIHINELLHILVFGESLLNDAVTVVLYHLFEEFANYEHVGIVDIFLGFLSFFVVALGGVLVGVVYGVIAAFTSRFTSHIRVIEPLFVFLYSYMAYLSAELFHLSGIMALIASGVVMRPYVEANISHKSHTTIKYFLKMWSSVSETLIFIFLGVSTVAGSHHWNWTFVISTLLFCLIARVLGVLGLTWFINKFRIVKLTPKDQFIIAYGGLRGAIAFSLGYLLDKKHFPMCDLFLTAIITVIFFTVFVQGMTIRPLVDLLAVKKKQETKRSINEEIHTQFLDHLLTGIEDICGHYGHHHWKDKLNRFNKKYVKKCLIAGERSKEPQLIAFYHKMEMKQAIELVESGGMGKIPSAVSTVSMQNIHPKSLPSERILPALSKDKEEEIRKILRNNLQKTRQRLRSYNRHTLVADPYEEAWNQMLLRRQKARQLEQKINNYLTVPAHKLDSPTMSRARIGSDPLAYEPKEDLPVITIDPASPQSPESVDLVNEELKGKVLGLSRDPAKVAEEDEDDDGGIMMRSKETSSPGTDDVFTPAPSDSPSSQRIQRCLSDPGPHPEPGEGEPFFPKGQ

Compound | inhibition at 1 µM [1, 10] [%] | inhibition at 10 µM ([1]; MDA-MB-231 cells, plate reader) [%] | IC50 at 48 h [2] [nM] | IC50 [3] [nM] | IC50 ([4]; human uPA, fluorometric method, Figure S1, read-out: uPA IC50 (not reached at the highest concentration tested)) [nM] | IC50 ([1]; Figure S1 representative curve, n = 3 technical replicates, read-out: NHE1 IC50 of curve shown, plate reader assay) [nM] | IC50 [1, 11] [nM] | IC50 ([5]; Figure S1, n = 6 technical replicates/concentration, read-out: NHE1 IC50, cuvette assay) [nM] | IC50 [4, 12] | uPA selectivity ratio [4] | IC50 [1, 13] | IC50 [5, 14] [nM] | IC50 [6] [nM] | ENaC activity in vitro [7] | K+-sparing or diuretic effects in vivo [8] | NHE1 Inhibition (%) 1 μM [1, 10] | drop in NHE1 potency relative to unsubstituted 24 ([1]; IC50 measurements) | anti-metastatic properties [9] | NHE1 selectivity ratio (selectivity over uPA) [1] [fold]
N=C(N)NC(=O)c1nc(Cl)c(N)nc1N [AML, Amiloride, reference compound] | 7 | 64 | > 100000 | […] |  |  |  |  |  |  |  |  |  |  |  |  |  |  | 
CC(=O)N1CCC(c2ccc(C(=O)NC(=N)N)cc2C(F)(F)F)CC1 [BI-9627, reference compound] |  |  |  | 6 | > 50000 | 1.4 | 3 ± 0.8 | 7.5 |  |  |  |  |  |  |  |  |  |  | 
N=C(N)NC(=O)c1nc(-c2cncnc2)c(N2CCCCCC2)nc1N [compound 24] | 80 | 96 | > 100000 |  |  |  |  |  | 175 nM and < 300 nM | 1.5 | 266 nM and < 300 nM | 397 | 130 ± 10 | no ENaC activity | no K^+-sparing or diuretic effects |  |  |  | 
COc1ncc(-c2nc(C(=O)NC(=N)N)c(N)nc2N2CCCCCC2)cn1 [compound 26] | 0 | 72 | > 100000 |  |  |  |  |  | 86 nM | 143 | 12300 nM | 21500 | 149 ± 14 | no ENaC activity | no K^+-sparing or diuretic effects | no activity | ~ 46 fold | anti-metastatic properties | 
N=C(N)NC(=O)c1nc(Cl)c(N2CCOCC2)nc1N [compound 29] | 85 | 100 | > 100000 |  |  |  |  |  | 10900 nM |  | 129 nM | 166 |  |  |  |  |  |  | 85
N=C(N)NC(=O)c1nc(Cl)c(N2CCCOCC2)nc1N [compound 30] | 91 | 100 | 95600 |  |  |  |  |  | 5720 nM |  | 85 nM | 93 |  |  |  |  |  |  | 67
N=C(N)NC(=O)c1nc(-c2ccc(C(F)(F)F)cc2)c(N2CCCC2)nc1N [compound 39] | 95 | 100 | 23900 |  |  |  | 605 ± 134 |  | 6190 nM |  |  | 441 |  |  |  |  |  |  | 
